From paper PMC5218480 (PLoS ONE, 2017)

System: MV-4-11 cells
Experiment: Gene expression microarray analysis (Affymetrix PrimeView) and GSEA
Format: cell-based, human
Design: RFU PODN (11730768_x_at) / Fold change /veh PODN (11730768_x_at) / RFU LINC00158 (11744669_a_at) / Fold change /veh LINC00158 (11744669_a_at) / RFU DUSP10 (11751237_a_at) / Fold change /veh DUSP10 (11751237_a_at) / RFU ID3 (11757404_x_at) / Fold change /veh ID3 (11757404_x_at) / RFU PLEKHG5 (11737974_s_at) / Fold change /veh PLEKHG5 (11737974_s_at) / RFU LRRC4B (11730491_at) / Fold change /veh LRRC4B (11730491_at) / RFU GIMAP4 (11747438_a_at) / Fold change /veh GIMAP4 (11747438_a_at) / RFU KRT8 (11758183_x_at) / Fold change /veh KRT8 (11758183_x_at) / RFU CNN1 (11734310_a_at) / Fold change /veh CNN1 (11734310_a_at) / RFU VPS37D (11726825_at) / Fold change /veh VPS37D (11726825_at) / RFU C10orf10 (11716522_x_at) / Fold change /veh C10orf10 (11716522_x_at) / RFU KIR2DL2 /// KIR2DL4 /// KIR2DL5A /// KIR2DL5B /// KIR2DS1 /// KIR2DS2 /// KIR2DS3 /// KIR2DS4 /// KIR3DL3 /// KIR3DL3 /// KIR3DS1 (11738374_at) / Fold change /veh KIR2DL2 /// KIR2DL4 /// KIR2DL5A /// KIR2DL5B /// KIR2DS1 /// KIR2DS2 /// KIR2DS3 /// KIR2DS4 /// KIR3DL3 /// KIR3DL3 /// KIR3DS1 (11738374_at) / RFU C1QL1 (11718748_at) / Fold change /veh C1QL1 (11718748_at) / RFU TMPRSS4 (11747572_a_at) / Fold change /veh TMPRSS4 (11747572_a_at) / RFU HAMP (11756126_x_at) / Fold change /veh HAMP (11756126_x_at) / RFU RNFT2 (11725882_a_at) / Fold change /veh RNFT2 (11725882_a_at) / RFU NR4A2 (11747474_a_at) / Fold change /veh NR4A2 (11747474_a_at) / RFU ABCC12 (11746883_a_at) / Fold change /veh ABCC12 (11746883_a_at) / RFU TMEM136 (11760407_x_at) / Fold change /veh TMEM136 (11760407_x_at) / RFU CLDN22 /// WWC2 (11732394_at) / Fold change /veh CLDN22 /// WWC2 (11732394_at) / RFU HLA-DPB1 (11760878_x_at) / Fold change /veh HLA-DPB1 (11760878_x_at) / RFU SPINT1 (11716480_a_at) / Fold change /veh SPINT1 (11716480_a_at) / RFU GAP43 (11754022_s_at) / Fold change /veh GAP43 (11754022_s_at) / RFU A4GNT (11735810_at) / Fold change /veh A4GNT (11735810_at) / RFU PRB3 (11715151_x_at) / Fold change /veh PRB3 (11715151_x_at) / RFU TUBB4B (11761932_at) / Fold change /veh TUBB4B (11761932_at) / RFU CAPN14 (11732068_a_at) / Fold change /veh CAPN14 (11732068_a_at) / RFU TMCC2 (11721928_a_at) / Fold change /veh TMCC2 (11721928_a_at) / RFU IRGQ (11745062_a_at) / Fold change /veh IRGQ (11745062_a_at) / RFU FAM174B (11720279_a_at) / Fold change /veh FAM174B (11720279_a_at) / RFU TMPRSS4 (11748680_a_at) / Fold change /veh TMPRSS4 (11748680_a_at) / RFU FAM212B (11763350_a_at) / Fold change /veh FAM212B (11763350_a_at) / RFU PLEKHG5 (11743358_a_at) / Fold change /veh PLEKHG5 (11743358_a_at) / RFU ZSCAN30 (11745921_a_at) / Fold change /veh ZSCAN30 (11745921_a_at) / RFU CMKLR1 (11741424_a_at) / Fold change /veh CMKLR1 (11741424_a_at) / RFU LOC101060620 /// MAPK8IP1 (11723275_at) / Fold change /veh LOC101060620 /// MAPK8IP1 (11723275_at) / RFU SPTSSB (11747773_x_at) / Fold change /veh SPTSSB (11747773_x_at) / RFU PRSS12 (11739890_at) / Fold change /veh PRSS12 (11739890_at) / RFU BIN1 (11741810_x_at) / Fold change /veh BIN1 (11741810_x_at) / RFU WNT11 (11732464_a_at) / Fold change /veh WNT11 (11732464_a_at) / RFU C10orf10 (11716521_a_at) / Fold change /veh C10orf10 (11716521_a_at) / RFU C5orf56 (11738089_at) / Fold change /veh C5orf56 (11738089_at) / RFU CYB561 (11721691_x_at) / Fold change /veh CYB561 (11721691_x_at) / RFU ANKRD19P (11752326_a_at) / Fold change /veh ANKRD19P (11752326_a_at) / RFU OR2T12 /// OR2T33 /// OR2T8 (11738714_s_at) / Fold change /veh OR2T12 /// OR2T33 /// OR2T8 (11738714_s_at) / RFU VCAN (11748164_a_at) / Fold change /veh VCAN (11748164_a_at) / RFU JSRP1 (11732532_at) / Fold change /veh JSRP1 (11732532_at) / RFU KRTAP10-11 (11738290_x_at) / Fold change /veh KRTAP10-11 (11738290_x_at) / RFU MYO3A (11730013_a_at) / Fold change /veh MYO3A (11730013_a_at) / RFU EBF3 (11725865_a_at) / Fold change /veh EBF3 (11725865_a_at) / RFU CAMK2N1 (11719241_x_at) / Fold change /veh CAMK2N1 (11719241_x_at) / RFU C5orf56 (11738088_a_at) / Fold change /veh C5orf56 (11738088_a_at) / RFU OLFML3 (11715873_a_at) / Fold change /veh OLFML3 (11715873_a_at) / RFU LOC100653217 /// NTM (11731650_a_at) / Fold change /veh LOC100653217 /// NTM (11731650_a_at) / RFU MAPK11 (11762145_a_at) / Fold change /veh MAPK11 (11762145_a_at) / RFU FIZ1 (11724087_x_at) / Fold change /veh FIZ1 (11724087_x_at) / RFU OASL (11726364_x_at) / Fold change /veh OASL (11726364_x_at) / RFU SOX15 (11748057_x_at) / Fold change /veh SOX15 (11748057_x_at) / RFU CD79A (11719716_a_at) / Fold change /veh CD79A (11719716_a_at) / RFU HIST1H1D (11736915_at) / Fold change /veh HIST1H1D (11736915_at) / RFU CASKIN2 (11723855_a_at) / Fold change /veh CASKIN2 (11723855_a_at) / RFU LOC730098 (11760151_x_at) / Fold change /veh LOC730098 (11760151_x_at) / RFU OR4N2 (11742367_at) / Fold change /veh OR4N2 (11742367_at) / RFU PRRT2 (11749266_a_at) / Fold change /veh PRRT2 (11749266_a_at) / RFU SNX32 (11753110_a_at) / Fold change /veh SNX32 (11753110_a_at) / RFU CDHR5 (11726645_a_at) / Fold change /veh CDHR5 (11726645_a_at) / RFU RCAN1 (11760418_a_at) / Fold change /veh RCAN1 (11760418_a_at) / RFU FAM167A (11723789_a_at) / Fold change /veh FAM167A (11723789_a_at) / RFU FAM26E (11764081_at) / Fold change /veh FAM26E (11764081_at) / RFU ISYNA1 (11749810_s_at) / Fold change /veh ISYNA1 (11749810_s_at) / RFU ACY1 (11761880_at) / Fold change /veh ACY1 (11761880_at) / RFU 11764098_at / Fold change /veh 11764098_at / RFU SAMD14 (11745864_x_at) / Fold change /veh SAMD14 (11745864_x_at) / RFU NPB (11741838_a_at) / Fold change /veh NPB (11741838_a_at) / RFU TMPRSS6 (11731388_a_at) / Fold change /veh TMPRSS6 (11731388_a_at) / RFU KRTAP10-2 (11738614_at) / Fold change /veh KRTAP10-2 (11738614_at) / RFU ARHGAP8 /// PRR5-ARHGAP8 (11727945_x_at) / Fold change /veh ARHGAP8 /// PRR5-ARHGAP8 (11727945_x_at) / RFU KRTAP5-7 /// NADSYN1 (11734609_at) / Fold change /veh KRTAP5-7 /// NADSYN1 (11734609_at) / RFU RASL12 (11751679_a_at) / Fold change /veh RASL12 (11751679_a_at) / RFU CDKN2B (11736163_a_at) / Fold change /veh CDKN2B (11736163_a_at) / RFU PRF1 (11729649_at) / Fold change /veh PRF1 (11729649_at) / RFU, ZNF638 /// ZNF638-IT1 / Fold change vs veh, ZNF638 /// ZNF638-IT1 / RFU, PANK3 / Fold change vs veh, PANK3 / RFU, SH3YL1 / Fold change vs veh, SH3YL1 / RFU, ZEB2 / Fold change vs veh, ZEB2 / RFU, NRIP1 / Fold change vs veh, NRIP1 / RFU, PTTG1IP / Fold change vs veh, PTTG1IP / RFU, CAPN2 / Fold change vs veh, CAPN2 / RFU, MED14 / Fold change vs veh, MED14 / RFU, SNORA58 / Fold change vs veh, SNORA58 / RFU, C1orf63 / Fold change vs veh, C1orf63 / RFU, LRRFIP1 / Fold change vs veh, LRRFIP1 / RFU, NDUFAF7 / Fold change vs veh, NDUFAF7 / RFU, SLC12A2 / Fold change vs veh, SLC12A2 / RFU, IBTK / Fold change vs veh, IBTK / RFU, ESF1 / Fold change vs veh, ESF1 / Fold change vs veh, TMEM50B / RFU, TAOK1 / Fold change vs veh, TAOK1 / RFU, ACBD3 / Fold change vs veh, ACBD3 / RFU, TMA16 / Fold change vs veh, TMA16 / RFU, RWDD3 / Fold change vs veh, RWDD3 / RFU, BCAT1 / Fold change vs veh, BCAT1 / RFU, EDEM3 / Fold change vs veh, EDEM3 / RFU, TMEM33 / Fold change vs veh, TMEM33 / RFU, WDR75 / Fold change vs veh, WDR75 / RFU, AHCTF1 / Fold change vs veh, AHCTF1 / RFU, TFRC / Fold change vs veh, TFRC / RFU, ZDHHC17 / Fold change vs veh, ZDHHC17 / RFU, NOM1 / Fold change vs veh, NOM1 / RFU, ARL8B / Fold change vs veh, ARL8B / RFU, ZBTB11 / Fold change vs veh, ZBTB11 / RFU, TAMM41 / Fold change vs veh, TAMM41 / RFU, KIAA1704 /// LOC100996395 / Fold change vs veh, KIAA1704 /// LOC100996395 / RFU, ING1 / Fold change vs veh, ING1 / RFU, TRMT61B / Fold change vs veh, TRMT61B / RFU, FUBP3 / Fold change vs veh, FUBP3 / RFU, TP53 / Fold change vs veh, TP53 / RFU, TNKS2 / Fold change vs veh, TNKS2 / RFU, ZFP14 / Fold change vs veh, ZFP14 / RFU, ACTR2 / Fold change vs veh, ACTR2 / RFU, PPP3R1 / Fold change vs veh, PPP3R1 / RFU, PIK3R1 / Fold change vs veh, PIK3R1 / RFU, HNRNPA1 / Fold change vs veh, HNRNPA1 / RFU, RNF170 / Fold change vs veh, RNF170 / RFU, ZNF28 / Fold change vs veh, ZNF28 / RFU, RNGTT / Fold change vs veh, RNGTT / RFU, OGT / Fold change vs veh, OGT / RFU, BRD1 / Fold change vs veh, BRD1 / RFU, MARS / Fold change vs veh, MARS / RFU, ZNF655 / Fold change vs veh, ZNF655 / RFU, FAHD1 / Fold change vs veh, FAHD1 / RFU, BDP1 / Fold change vs veh, BDP1 / RFU, LRRCC1 / Fold change vs veh, LRRCC1 / RFU, ARID1A / Fold change vs veh, ARID1A / RFU, ZNF146 / Fold change vs veh, ZNF146 / RFU, ZNF330 / Fold change vs veh, ZNF330 / RFU, GPN3 / Fold change vs veh, GPN3 / RFU, C9orf123 / Fold change vs veh, C9orf123 / RFU, N4BP2L2 / Fold change vs veh, N4BP2L2 / RFU, ARFIP1 / Fold change vs veh, ARFIP1 / RFU, FAM179B / Fold change vs veh, FAM179B / RFU, BCL10 / Fold change vs veh, BCL10 / RFU, UHRF1BP1L / Fold change vs veh, UHRF1BP1L / RFU, BET1 / Fold change vs veh, BET1 / RFU, CNOT2 / Fold change vs veh, CNOT2 / RFU, ZNF268 / Fold change vs veh, ZNF268 / Fold change vs veh, ZNF507 / RFU, DGCR2 / Fold change vs veh, DGCR2 / RFU, WDSUB1 / Fold change vs veh, WDSUB1 / Fold change vs veh, HSP90B1 /// MIR3652 / RFU, ADSS / Fold change vs veh, ADSS / RFU, GK / Fold change vs veh, GK / RFU, ZNF148 / Fold change vs veh, ZNF148 / RFU, TAF9 / Fold change vs veh, TAF9 / RFU, SLC1A5 / Fold change vs veh, SLC1A5 / RFU, SLMO2 / Fold change vs veh, SLMO2 / RFU, ABCC4 / Fold change vs veh, ABCC4 / RFU, LOC101060439 /// RAP1B / Fold change vs veh, LOC101060439 /// RAP1B / RFU, RFX7 / Fold change vs veh, RFX7 / RFU, GTPBP10 / Fold change vs veh, GTPBP10 / RFU, CNEP1R1 / Fold change vs veh, CNEP1R1 / RFU, BIVM-ERCC5 /// ERCC5 / Fold change vs veh, BIVM-ERCC5 /// ERCC5 / RFU, ILF3 / Fold change vs veh, ILF3 / RFU 11762660_at / Fold change /veh 11762660_at / RFU VCAN (11757783_s_at) / Fold change /veh VCAN (11757783_s_at) / RFU DDX43 (11728927_at) / Fold change /veh DDX43 (11728927_at) / RFU KRT8 (11758188_x_at) / Fold change /veh KRT8 (11758188_x_at) / RFU NKD1 (11759106_at) / Fold change /veh NKD1 (11759106_at) / RFU SRD5A1 (11742802_a_at) / Fold change /veh SRD5A1 (11742802_a_at) / RFU TPSAB1 /// TPSB2 (11721975_s_at) / Fold change /veh TPSAB1 /// TPSB2 (11721975_s_at) / RFU GSTM3 (11746129_a_at) / Fold change /veh GSTM3 (11746129_a_at) / RFU IL23R (11737362_x_at) / Fold change /veh IL23R (11737362_x_at) / RFU TMEM51 (11727254_a_at) / Fold change /veh TMEM51 (11727254_a_at) / RFU PIWIL2 (11732686_x_at) / Fold change /veh PIWIL2 (11732686_x_at) / RFU ORM1 (11744905_x_at) / Fold change /veh ORM1 (11744905_x_at) / RFU CCDC152 (11743942_at) / Fold change /veh CCDC152 (11743942_at) / RFU ECM1 (11717891_a_at) / Fold change /veh ECM1 (11717891_a_at) / RFU IL23R (11748794_a_at) / Fold change /veh IL23R (11748794_a_at) / RFU TNFAIP8L3 (11732012_x_at) / Fold change /veh TNFAIP8L3 (11732012_x_at) / RFU MBOAT4 (11741988_at) / Fold change /veh MBOAT4 (11741988_at) / RFU 11764193_at / Fold change /veh 11764193_at / RFU TMEM53 (11763286_at) / Fold change /veh TMEM53 (11763286_at) / RFU MAGEB2 (11727129_at) / Fold change /veh MAGEB2 (11727129_at) / RFU TMEM200A (11744735_a_at) / Fold change /veh TMEM200A (11744735_a_at) / RFU CCDC152 (11751479_a_at) / Fold change /veh CCDC152 (11751479_a_at) / RFU FAM211A (11726209_a_at) / Fold change /veh FAM211A (11726209_a_at) / RFU RGS16 (11746705_a_at) / Fold change /veh RGS16 (11746705_a_at) / RFU VCAN (11755009_s_at) / Fold change /veh VCAN (11755009_s_at) / RFU RHOB (11743442_s_at) / Fold change /veh RHOB (11743442_s_at) / RFU RGS16 (11720943_a_at) / Fold change /veh RGS16 (11720943_a_at) / RFU RGS16 (11720944_at) / Fold change /veh RGS16 (11720944_at) / RFU, VPS4B / Fold change vs veh, VPS4B / RFU, CREB1 / Fold change vs veh, CREB1 / RFU, DNAJC13 / Fold change vs veh, DNAJC13 / RFU, GNAQ / Fold change vs veh, GNAQ / RFU, CDK5R1 / Fold change vs veh, CDK5R1 / RFU, ZRANB3 / Fold change vs veh, ZRANB3 / RFU, CUL4A / Fold change vs veh, CUL4A / RFU, CCNY / Fold change vs veh, CCNY / RFU, UFL1 / Fold change vs veh, UFL1 / RFU, COG3 / Fold change vs veh, COG3 / RFU, DIAPH2 / Fold change vs veh, DIAPH2 / RFU, SKA2 / Fold change vs veh, SKA2 / RFU, AFF3 / Fold change vs veh, AFF3 / RFU, LMF1 / Fold change vs veh, LMF1 / RFU, IPO11 / Fold change vs veh, IPO11 / RFU, DFFB / Fold change vs veh, DFFB / RFU, FOXP1 / Fold change vs veh, FOXP1 / RFU, CARD8 / Fold change vs veh, CARD8 / RFU, STRN3 / Fold change vs veh, STRN3 / RFU, ADK / Fold change vs veh, ADK / RFU, RASSF2 / Fold change vs veh, RASSF2 / RFU, WIPF1 / Fold change vs veh, WIPF1 / RFU, LARP1B / Fold change vs veh, LARP1B / RFU, RASA1 / Fold change vs veh, RASA1 / RFU, RB1 / Fold change vs veh, RB1 / RFU, PPFIA1 / Fold change vs veh, PPFIA1 / RFU, MAT2A / Fold change vs veh, MAT2A / RFU, CCT5 / Fold change vs veh, CCT5 / RFU, WDR92 / Fold change vs veh, WDR92 / RFU, CUX1 / Fold change vs veh, CUX1 / RFU, TTC7A / Fold change vs veh, TTC7A / RFU, TMEM135 / Fold change vs veh, TMEM135 / RFU, DEPTOR / Fold change vs veh, DEPTOR / RFU, CPM / Fold change vs veh, CPM / RFU, DNAJB6 / Fold change vs veh, DNAJB6 / RFU, CACNA2D3 / Fold change vs veh, CACNA2D3 / RFU, DTX4 / Fold change vs veh, DTX4 / RFU, TFCP2 / Fold change vs veh, TFCP2 / RFU, GMCL1 /// GMCL1P1 / Fold change vs veh, GMCL1 /// GMCL1P1 / RFU, AEBP2 / Fold change vs veh, AEBP2 / RFU, SNHG1 /// SNORD22 /// SNORD25 /// SNORD26 /// SNORD27 /// SNORD28 /// SNORD29 /// SNORD31 / Fold change vs veh, SNHG1 /// SNORD22 /// SNORD25 /// SNORD26 /// SNORD27 /// SNORD28 /// SNORD29 /// SNORD31 / Fold change (Aza/veh), C12orf56 (ProbeSet 11735607_a_at) / Fold change (ACY-1035/veh), C12orf56 (ProbeSet 11735607_a_at) / Fold change (Aza/veh), FGFR1OP (ProbeSet 11751329_s_at) / Fold change (ACY-1035/veh), FGFR1OP (ProbeSet 11751329_s_at) / Fold change (Aza/veh), VPS36 (ProbeSet 11739960_a_at) / Fold change (ACY-1035/veh), VPS36 (ProbeSet 11739960_a_at) / RFU SYPL1 (11715823_x_at) / Fold change /veh SYPL1 (11715823_x_at) / RFU IGFBP7 (11715501_s_at) / Fold change /veh IGFBP7 (11715501_s_at) / RFU REEP3 (11722064_at) / Fold change /veh REEP3 (11722064_at) / RFU IGLL1 (11728026_x_at) / Fold change /veh IGLL1 (11728026_x_at): dose or concentration left out as unconfirmed
Conditions: ProbeSet 11724877_a_at; LIST D

Nc1ncn([C@@H]2O[C@H](CO)[C@@H](O)[C@H]2O)c(=O)n1 [azacitidine]
RFU, AEBP2: 23.96 RFU
